Data reported in patent US12018265B2, “Nucleic acid encoding n-methylputrescine oxidase and uses thereof” (22nd Century Limited, LLC, priority 2006, dated 2024).

What was measured:
MPO = settings: compared with N-methylated diamines; Hashimoto 1990, Walton and McLauchlan 1990, Boswell 1999; cited from earlier work
[1] = system: MPO and PMT expression in roots; test: qRT-PCR analysis of MPO and PMT expression in MeJa-treated roots; assay type: in vivo, Nicotiana benthamiana; settings: MeJa 11 μM in hydroponic solution
Method: Nicotiana benthamiana (Solanaceae) seedlings were grown hydroponically in 0.25× Hoagland's solution supplemented with iron chelate solution and oxygenated using an aquarium bubbler. Roots from three-week old plants were sampled before (t=0) and at 1, 4, and 7 hours after addition of MeJa to a final concentration of 11 μM. Total RNA was isolated from 450 mg each of untreated leaves, untreated roots, and a combined MeJa-treated root sample composed of 150 mg roots each from the 1, 4 and 7 hour time points using a RNeasy midi kit (Qiagen). We constructed three separate subtractive cDNA libraries: NBREL2, with mRNA pooled from MeJa-treated roots as tester and untreated root mRNA as driver; NBLEL3, with mRNA pooled from MeJa-treated roots as tester and leaf mRNA as driver; and NBREL4, with mRNA pooled from MeJa-treated roots as both tester and driver.
The inducibility of MPO by MeJa application was determined using quantitative RT-PCR (qRT-PCR). The same PCR primers were used as for RT-PCR analysis of expression in different tissues. Total RNA was extracted from hydroponically grown roots immediately before and 1, 4, and 7 hours after addition of MeJa (11 μM) to the hydroponic solution. Hydroponic conditions are detailed in Example 1. […]

[2] = system: recombinant MPO (N-methylputrescine oxidase); test: Recombinant MPO enzyme assay (Amplex red hydrogen peroxide/peroxidase system); assay type: biochemical, Nicotiana benthamiana
Method: Protein extracts was prepared from the roots of buffer control, TRV-GFP and TRV-MPO (214D11) infected plants. The extraction method described in Hashimoto T. et al. (Plant Physiol. 93: 216-221 (1990)) was used. Briefly, 1 g roots was ground in liquid nitrogen and suspended in 20 ml of extraction buffer containing 100 mM potassium phosphate pH 7.5, 0.25 M sucrose, 5 mM EDTA, 0.3% ascorbate and 10% PVPP. After centrifugation at 500 g for 30 min, the supernatant was further centrifuged at 11,000 g for another 30 minutes. The supernatant was subjected to two rounds of 20% and 40% ammonium sulphate precipitation. The precipitate was resuspended in 1 ml water, followed by dialysis overnight in 2 l of buffer containing 20 mM potassium phosphate pH 7.5, 1 mM DTT and 20% glycerol. The protein concentration was determined by DC protein assay kit (BioRad). […] After incubating the mixture at 30° C. for 30 min, the fluorescence was measured with a fluorescence microplate reader (Victor3 UV multilabel reader, PerkinElmer) using excitation at 530-560 nm and emission at 590 nm.
The ORF of the N. benthamiana MPO was expressed in E. coli and the recombinant enzyme was purified for biochemical characterization. […] The protein concentration was determined with DC protein assay kit (BioRad) and MPO purity was analyzed with SDS-PAGE electrophoresis (BioRad). […]

NCCCCCN [Cadaverine]
Affinity as substrate for MPO (MPO): lower affinity than N-methylated diamines

CC/C=C\CC1C(=O)CCC1CC(=O)OC (centres unmarked) [MeJa, methyljasmonate]
Increase of MPO expression over pre-induction levels ([1]; roots before and 1, 4, 7 hours after, actin reference (FIG. 3)): 23 fold
Change of PMT transcript levels in response to the inducer ([1]; roots, compared with MPO (FIG. 3)): even more dramatic increase

CNCCCCN [N-methylputrescine]
Km ([2]; 1 μg Talon purified MPO, N-methylputrescine 10 mM to 0.01 mM, 30°, 30 minutes): 100 µM
Substrate specificity of recombinant MPO ([2]; 1 mM of N-methylputrescine, putrescine, diaminopropane, cadaverine, spermine and spermidine (FIG. 9)): preferred N-methylputrescine as a substrate
